Article PMC9388626, “STUB1 is an intracellular checkpoint for interferon gamma sensing” (Scientific Reports, 2022)

Columns and labels:
B16-F10 cells [1] = test: Western blot, protein expression after 24 h IFNγ; assay type: cell-based, murine
Description: (§1) Parental, CRISPR-edited or biologic-overexpressed tumour cells were seeded in a cell density of 60,000 (B16-F10), 150,000 (CT26), 100,000 (A375), or 200,000 (A549) per well in 12-well plate filled with 0.8 ml culture media + 10% FBS. After overnight incubation, the culture media were replaced with 1 ml fresh media supplemented with 10% FBS and the designated concentration of the recombinant mouse IFNγ (R&D Systems, #485-MI-100) or recombinant human IFNγ (R&D Systems, #285-IF-100). The cells were stimulated with the cytokine for 24 h before they were harvested by trypsinization for flow cytometry, western blot, or qPCR analysis (6 h treatment).
Cells were dissociated from the wells with 0.25% trypsin (Gibco, 25200056). After rinsing with 0.5 ml PBS, the cell pellets were lysed with chilled cell lysis buffer (Cell Signaling Technology, #9803) supplemented with Halt protease inhibitor cocktail (Thermo Scientific, #78430) and phosphatase inhibitor (Sigma-Aldrich, # 4906837001) for 30 min with intermittent vortexing. The lysate was transferred into PCR-strip tubes and sonicated in a chilled water bath sonicator (QSonica). Lysates were clarified by centrifugation at 15,000 rpm at 4 °C for 15 min. Protein concentration was determined using BCA protein assay kit (Pierce, #23225). The lysates were mixed with LDS sample buffer (Life Technologies, NP0008) and sample reducing agent (Life Technologies, NP0009), followed by heating at 70 °C for 10 min to fully denature the protein. […] Membrane blots were pre-stained with total protein stain (LI-COR, # 926-11016) and imaged with Odyssey CLx. […] The blots were finally probed, for overnight at 4 °C, with the appropriate primary antibodies diluted in Intercept (TBS) blocking buffer supplemented with 0.1% (v/v) Tween-20, followed by the secondary antibodies (IRDye 800CW donkey anti-rabbit or anti-mouse IgG, LI-COR) for 1 h at room temperature. Fluorescent signals were imaged and quantified using Odyssey CLx and Image Studio v5.0. Primary antibodies used were: STUB1/CHIP (Cell Signaling Technology, #2080, 1:2000 dilution), STAT1 (Cell Signaling Technology, #14995, 1:10,000 dilution), phospho-Tyr701-STAT1 (Cell Signaling Technology, #9167, 1:2000 dilution), STAT2 (Cell Signaling Technology, #72604, 1:2000 dilution), IRF1 (Cell Signaling Technology, #8478, 1:2000 dilution), PSMB8 (Cell Signaling Technology, #13635, 1:2000 dilution), PSMB9 (Abcam, ab184172, 1:10,000 dilution), and PSMB10 (Abcam, ab183506, 1:10,000 dilution).

B16-F10 cells [2] = test: Flow cytometry, surface IFNGR1 on CRISPR-edited cells; assay type: cell-based, murine; details: for Surface IFNGR1 relative to Parental (Fig. 2c): Parental = 1.00
Description: as §1
Cells were dissociated from the wells with 0.25% trypsin (Gibco, 25200056). After rinsing with 0.5 ml PBS, each sample was stained with the LIVE/DEAD Fixable Aqua dead cell staining solution (Life Technologies, L34957) in 100 µl PBS (1:1000 dilution) for 15 min at 4 °C. After rinsing with 2 × 0.5 ml PBS, each sample was stained with the corresponding primary antibody-dye conjugates diluted in 100 µl Pharmingen stain buffer (BD Biosciences, #554657). After 1 h staining at 4 °C, the cells were rinsed with 2 × 2 ml Pharmingen stain buffer and fixed with 4.21% (w/w) formaldehyde (BD Biosciences, #554655). Cells were analyzed on LSRFortessa X-20 (BD Biosciences) with appropiate fluorescence compensation. The data were analyzed using FlowJo. Cells were gated based on FSC and SSC. Single cells were selected using FSC-A and FSC-H and viable cells were selected using LIVE/DEAD signal. Primary antibodies used were: H-2K^b/H-2D^b (FITC, Biolegend, #114606, 1:50 dilution), HLA-A,B,C (FITC, Biolegend, #311404, 1:100 dilution), mouse IFNGR1 (PE, Invitrogen, #12-1191-82, 1:50 dilution), human IFNGR1 (PE, Miltenyi, #130-125-851, 1:50 dilution), mouse IL1R1 (APC, Biolegend, #113509, 1:20 dilution), mouse IL6R (APC, Biolegend, #115812, 1:20 dilution), mouse IFNAR1 (APC, Biolegend, #127314, 1:20 dilution), and mouse GP130 (PE, Biolegend, #149404, 1:100 dilution).

IFNγ
Protein expression of STAT1, STAT2, IRF1 (B16-F10 cells [1]; Stub1-null B16-F10, 24 h IFNγ): upregulation of STAT1, STAT2, and IRF1 after 24 h stimulation with IFNγ
Cell surface IFNGR1 with increasing IFNγ (B16-F10 cells [2]; B16-F10, 24 h): declined with increasing IFNγ concentration

gStub1 #1 (guide GCATTGCTAAGAAGAAGCGC; chemistry not given here)
PSMB8 (Fig. 1e) (B16-F10 cells [1]; IFNg 0.01 ng/ml): 171356
PSMB9 (Fig. 1e) (B16-F10 cells [1]; IFNg 0.01 ng/ml): 214373
PSMB10 (Fig. 1e) (B16-F10 cells [1]; IFNg 0.01 ng/ml): 83490
STAT1 (Fig. 1e) (B16-F10 cells [1]; IFNg 0.01 ng/ml): 156019
PSMB8 (Fig. 1e) (B16-F10 cells [1]; IFNg 0.03 ng/ml): 202198
PSMB9 (Fig. 1e) (B16-F10 cells [1]; IFNg 0.03 ng/ml): 947224
PSMB10 (Fig. 1e) (B16-F10 cells [1]; IFNg 0.03 ng/ml): 557217
STAT1 (Fig. 1e) (B16-F10 cells [1]; IFNg 0.03 ng/ml): 430481
PSMB8 (Fig. 1e) (B16-F10 cells [1]; IFNg 0.10 ng/ml): 232103
PSMB9 (Fig. 1e) (B16-F10 cells [1]; IFNg 0.10 ng/ml): 2077116
PSMB10 (Fig. 1e) (B16-F10 cells [1]; IFNg 0.10 ng/ml): 2055449
STAT1 (Fig. 1e) (B16-F10 cells [1]; IFNg 0.10 ng/ml): 714350
PSMB8 (Fig. 1e) (B16-F10 cells [1]; IFNg 0.30 ng/ml): 334603
PSMB9 (Fig. 1e) (B16-F10 cells [1]; IFNg 0.30 ng/ml): 3663399
PSMB10 (Fig. 1e) (B16-F10 cells [1]; IFNg 0.30 ng/ml): 3429074
STAT1 (Fig. 1e) (B16-F10 cells [1]; IFNg 0.30 ng/ml): 1243340
PSMB8 (Fig. 1e) (B16-F10 cells [1]; IFNg 1.00 ng/ml): 529221
PSMB9 (Fig. 1e) (B16-F10 cells [1]; IFNg 1.00 ng/ml): 4935730
PSMB10 (Fig. 1e) (B16-F10 cells [1]; IFNg 1.00 ng/ml): 4476630
STAT1 (Fig. 1e) (B16-F10 cells [1]; IFNg 1.00 ng/ml): 1537016
PSMB8 (Fig. 1e) (B16-F10 cells [1]; IFNg Nil): 173338
PSMB9 (Fig. 1e) (B16-F10 cells [1]; IFNg Nil): 17374
PSMB10 (Fig. 1e) (B16-F10 cells [1]; IFNg Nil): 18816
STAT1 (Fig. 1e) (B16-F10 cells [1]; IFNg Nil): 22848
Surface IFNGR1 (Fig. 2b) (B16-F10 cells [2]; IFNg 0.01 ng/ml, replicate 1): 4507
Surface IFNGR1 relative to Parental (Fig. 2c) (B16-F10 cells [2]; IFNg 0.01 ng/ml, replicate 1): 2.35
Surface IFNGR1 (Fig. 2b) (B16-F10 cells [2]; IFNg 0.01 ng/ml, replicate 2): 4382
Surface IFNGR1 relative to Parental (Fig. 2c) (B16-F10 cells [2]; IFNg 0.01 ng/ml, replicate 2): 2.34
Surface IFNGR1 (Fig. 2b) (B16-F10 cells [2]; IFNg 0.01 ng/ml, replicate 3): 3988
Surface IFNGR1 relative to Parental (Fig. 2c) (B16-F10 cells [2]; IFNg 0.01 ng/ml, replicate 3): 2.16
Surface IFNGR1 (Fig. 2b) (B16-F10 cells [2]; IFNg 0.03 ng/ml, replicate 1): 4026
Surface IFNGR1 relative to Parental (Fig. 2c) (B16-F10 cells [2]; IFNg 0.03 ng/ml, replicate 1): 1.83
Surface IFNGR1 (Fig. 2b) (B16-F10 cells [2]; IFNg 0.03 ng/ml, replicate 2): 3680
Surface IFNGR1 relative to Parental (Fig. 2c) (B16-F10 cells [2]; IFNg 0.03 ng/ml, replicate 2): 1.69
Surface IFNGR1 (Fig. 2b) (B16-F10 cells [2]; IFNg 0.03 ng/ml, replicate 3): 3566
Surface IFNGR1 relative to Parental (Fig. 2c) (B16-F10 cells [2]; IFNg 0.03 ng/ml, replicate 3): 2.17
Surface IFNGR1 (Fig. 2b) (B16-F10 cells [2]; IFNg 0.10 ng/ml, replicate 1): 4027
Surface IFNGR1 relative to Parental (Fig. 2c) (B16-F10 cells [2]; IFNg 0.10 ng/ml, replicate 1): 2.07
Surface IFNGR1 (Fig. 2b) (B16-F10 cells [2]; IFNg 0.10 ng/ml, replicate 2): 3862
Surface IFNGR1 relative to Parental (Fig. 2c) (B16-F10 cells [2]; IFNg 0.10 ng/ml, replicate 2): 2.28
Surface IFNGR1 (Fig. 2b) (B16-F10 cells [2]; IFNg 0.10 ng/ml, replicate 3): 3601
Surface IFNGR1 relative to Parental (Fig. 2c) (B16-F10 cells [2]; IFNg 0.10 ng/ml, replicate 3): 2.06
Surface IFNGR1 (Fig. 2b) (B16-F10 cells [2]; IFNg 0.30 ng/ml, replicate 1): 3595
Surface IFNGR1 relative to Parental (Fig. 2c) (B16-F10 cells [2]; IFNg 0.30 ng/ml, replicate 1): 1.70
Surface IFNGR1 (Fig. 2b) (B16-F10 cells [2]; IFNg 0.30 ng/ml, replicate 2): 3609
Surface IFNGR1 relative to Parental (Fig. 2c) (B16-F10 cells [2]; IFNg 0.30 ng/ml, replicate 2): 2.03
Surface IFNGR1 (Fig. 2b) (B16-F10 cells [2]; IFNg 0.30 ng/ml, replicate 3): 3263
Surface IFNGR1 relative to Parental (Fig. 2c) (B16-F10 cells [2]; IFNg 0.30 ng/ml, replicate 3): 1.89
Surface IFNGR1 (Fig. 2b) (B16-F10 cells [2]; IFNg 1.00 ng/ml, replicate 1): 3107
Surface IFNGR1 relative to Parental (Fig. 2c) (B16-F10 cells [2]; IFNg 1.00 ng/ml, replicate 1): 1.68
Surface IFNGR1 (Fig. 2b) (B16-F10 cells [2]; IFNg 1.00 ng/ml, replicate 2): 3061
Surface IFNGR1 relative to Parental (Fig. 2c) (B16-F10 cells [2]; IFNg 1.00 ng/ml, replicate 2): 1.74
Surface IFNGR1 (Fig. 2b) (B16-F10 cells [2]; IFNg 1.00 ng/ml, replicate 3): 2676
Surface IFNGR1 relative to Parental (Fig. 2c) (B16-F10 cells [2]; IFNg 1.00 ng/ml, replicate 3): 1.66
Surface IFNGR1 (Fig. 2b) (B16-F10 cells [2]; IFNg Nil, replicate 1): 4564
Surface IFNGR1 relative to Parental (Fig. 2c) (B16-F10 cells [2]; IFNg Nil, replicate 1): 2.27
Surface IFNGR1 (Fig. 2b) (B16-F10 cells [2]; IFNg Nil, replicate 2): 4378
Surface IFNGR1 relative to Parental (Fig. 2c) (B16-F10 cells [2]; IFNg Nil, replicate 2): 2.36
Surface IFNGR1 (Fig. 2b) (B16-F10 cells [2]; IFNg Nil, replicate 3): 4200
Surface IFNGR1 relative to Parental (Fig. 2c) (B16-F10 cells [2]; IFNg Nil, replicate 3): 2.25
